{
  "source": "patent US9701676B2",
  "about": "“Pro-neurogenic compounds” (Board of Regents of The University of Texas System, priority 2012, dated 2017)",
  "data": [
    {"tested_on": "proliferating neural precursor cells in the hippocampus (subgranular layer of the dentate gyrus)", "experiment": "standard in vivo hippocampal neurogenesis assay (BrdU labelling, week-long intracranial mini-pump infusion)", "set-up": "species or system mouse (C57/B6)", "settings": "10 μM concentration, seven days of infusion at 0.5 μL/hour, daily IP BrdU; four 12 week old adult male C57/B6 mice; vehicle 14.5", "method": "Compounds were administered at a concentration of 10 μM for each molecule. After seven days of infusion at a constant rate of 0.5 μL/hour, a total of 84 μL of volume will have left the pump (0.00084 μMoles) and entered the cerebrospinal fluid. The average volume of a brain from a 12 week old male, C57/B6 mouse in the study is 500 mm^3. […] Under these conditions, at the end of one week of infusion each compound would be present at 1.7 μMolar concentration. Since the actual amount of chemical compound in the brain is likely to be only a fraction of this predicted level, it is reasonable to estimate that compounds were administered at mid to low-nanomolar concentrations.\nDuring compound infusion, animals were intraperitoneally (IP) injected daily with the thymidine analog, bromodeoxyuridine (BrdU), as a means of scoring the birth and survival of proliferating neural precursor cells in the hippocampus. Because both social interaction and voluntary exercise are known to stimulate hippocampal neurogenesis, mice were housed individually without access to running wheels throughout the screening period. Following the week-long period of compound administration, animals were perfused and sacrificed. Dissected brain tissue was fixed, embedded, sectioned, stained with antibodies to BrdU, and evaluated by light microcopy as a means of quantifying neurogenesis and survival of newborn neural precursor cells localized to the subgranular layer of the dentate gyms on the brain hemisphere contralateral to the side of mini-pump cannulation. Every fifth section throughout the entire rostral-caudal extent of the hippocampus was analyzed, and the total number of BrdU+ cells was normalized against the measured volume of the dentate gyms.\nIntracranial infusions of either fibroblast growth factor 2 (FGF-2) or artificial cerebral spinal fluid (aCSF) vehicle via the same, week-long protocol were employed as positive and negative controls.\nCompounds were evaluated for pro-neurogenic efficacy/neuroprotection in a standard in vivo hippocampal neurogenesis assay at 10 μM concentration in four 12 week old adult male C57/B16 mice.", "values": [
      {"smiles": "COc1cccc(N(CC(O)Cn2c3ccc(Br)cc3c3cc(Br)ccc32)S(=O)(=O)c2ccccc2)c1", "note": "(stereo not drawn) [P7C3-S252, N-(3-(3,6-dibromo-9H-carbazol-9-yl)-2-hydroxypropyl)-N-(3-methoxyphenyl)benzenesulfonamide]", "(×10^−06) BrdU+ cells/mm^3 dentate gyrus": "33.2 (×10^−06) BrdU+ cells/mm^3"},
      {"smiles": "COc1cccc(N(CC(F)Cn2c3ccc(Br)cc3c3cc(Br)ccc32)S(C)(=O)=O)c1", "note": "(stereo not drawn) [P7C3-S256, N-(3-(3,6-dibromo-9H-carbazol-9-yl)-2-fluoropropyl)-N-(3-methoxyphenyl)methanesulfonamide]", "(×10^−06) BrdU+ cells/mm^3 dentate gyrus": "31.5 (×10^−06) BrdU+ cells/mm^3"},
      {"smiles": "OC(CSc1ccccc1)CN1c2ccccc2CCc2ccccc21", "note": "(stereo not drawn) [P7C3-S134, 1-(10,11-dihydro-5H-dibenzo[b,f]azepin-5-yl)-3-(phenylthio)propan-2-ol]", "(×10^−06) BrdU+ cells/mm^3 dentate gyrus": "19.4 (×10^−06) BrdU+ cells/mm^3"},
      {"smiles": "O=C(O)CN1c2ccccc2CCc2ccccc21", "note": "[P7C3-S210, 2-(10,11-dihydro-5H-dibenzo[b,f]azepin-5-yl)acetic acid]", "(×10^−06) BrdU+ cells/mm^3 dentate gyrus": "21.4 (×10^−06) BrdU+ cells/mm^3"},
      {"smiles": "Brc1ccc2[nH]c3ccc(Br)cc3c2c1", "note": "[P7C3-S162, 3,6-dibromo-9H-carbazole]", "(×10^−06) BrdU+ cells/mm^3 dentate gyrus": "25.2 (×10^−06) BrdU+ cells/mm^3"},
      {"smiles": "CN(C)c1nc(O)c2[nH]c3ccccc3c2n1", "note": "[P7C3-S245, 2-(dimethylamino)-5H-pyrimido[5,4-b]indol-4-ol]", "(×10^−06) BrdU+ cells/mm^3 dentate gyrus": "32.4 (×10^−06) BrdU+ cells/mm^3"},
      {"smiles": "O=C(O)Cn1c2ccc(Br)cc2c2cc(C(=O)O)ccc21", "note": "[P7C3-S239, 6-bromo-9-(carboxymethyl)-9H-carbazole-3-carboxylic acid]", "(×10^−06) BrdU+ cells/mm^3 dentate gyrus": "22.8 (×10^−06) BrdU+ cells/mm^3"},
      {"smiles": "CC(C(=O)O)n1c2ccc(Br)cc2c2cc(Br)ccc21", "note": "(stereo not drawn) [P7C3-S211, 2-(3,6-dibromo-9H-carbazol-9-yl)propanoic acid]", "(×10^−06) BrdU+ cells/mm^3 dentate gyrus": "23 (×10^−06) BrdU+ cells/mm^3"},
      {"smiles": "COc1cccc(N(CC(F)Cn2c3ccc(Br)cc3c3cc(Br)ccc32)S(=O)(=O)c2ccccc2C(F)(F)F)c1", "note": "(stereo not drawn) [P7C3-S257, N-(3-(3,6-dibromo-9H-carbazol-9-yl)-2-fluoropropyl)-N-(3-methoxyphenyl)-2-(trifluoromethyl)benzenesulfonamide]", "(×10^−06) BrdU+ cells/mm^3 dentate gyrus": "29.4 (×10^−06) BrdU+ cells/mm^3"},
      {"smiles": "N#CCn1c2ccc(Br)cc2c2cc(Br)ccc21", "note": "[P7C3-S235, 2-(3,6-dibromo-9H-carbazol-9-yl)acetonitrile]", "(×10^−06) BrdU+ cells/mm^3 dentate gyrus": "23.4 (×10^−06) BrdU+ cells/mm^3"},
      {"smiles": "OC(COc1ccccc1)CN1c2ccccc2CCc2ccccc21", "note": "(stereo not drawn) [P7C3-S135, 1-(10,11-dihydro-5H-dibenzo[b,f]azepin-5-yl)-3-phenoxypropan-2-ol]", "(×10^−06) BrdU+ cells/mm^3 dentate gyrus": "14.2 (×10^−06) BrdU+ cells/mm^3"},
      {"smiles": "COc1ccc2[nH]c3ccc(Br)cc3c2c1", "note": "[P7C3-S209, 3-bromo-6-methoxy-9H-carbazole]", "(×10^−06) BrdU+ cells/mm^3 dentate gyrus": "30 (×10^−06) BrdU+ cells/mm^3"},
      {"smiles": "O=C(O)CCc1c[nH]c2ccccc12", "note": "[P7C3-S242, 3-indolepropionic acid, reference compound]", "(×10^−06) BrdU+ cells/mm^3 dentate gyrus": "21.5 (×10^−06) BrdU+ cells/mm^3"},
      {"smiles": "CCOC(=O)C1=NCc2c(c3ccccc3n2S(=O)(=O)c2ccc(C)cc2)N1", "note": "[P7C3-S247, ethyl 5-tosyl-4,5-dihydro-1H-pyrimido[5,4-b]indole-2-carboxylate]", "(×10^−06) BrdU+ cells/mm^3 dentate gyrus": "31.1 (×10^−06) BrdU+ cells/mm^3"},
      {"smiles": "CN(C)CC(O)CN1c2ccccc2CCc2ccccc21", "note": "(stereo not drawn) [P7C3-S139, 1-(10,11-dihydro-5H-dibenzo[b,f]azepin-5-yl)-3-(dimethylamino)propan-2-ol]", "(×10^−06) BrdU+ cells/mm^3 dentate gyrus": "24.9 (×10^−06) BrdU+ cells/mm^3"},
      {"smiles": "[N-]=[N+]=NCC(F)Cn1c2ccc(Br)cc2c2cc(Br)ccc21", "note": "(stereo not drawn) [P7C3-S189, 9-(3-azido-2-fluoropropyl)-3,6-dibromo-9H-carbazole]", "(×10^−06) BrdU+ cells/mm^3 dentate gyrus": "13.7 (×10^−06) BrdU+ cells/mm^3"},
      {"smiles": "N[C@@H](Cc1c[nH]c2ccccc12)C(=O)O", "note": "[P7C3-S248, L-tryptophan, reference compound]", "(×10^−06) BrdU+ cells/mm^3 dentate gyrus": "20.1 (×10^−06) BrdU+ cells/mm^3"},
      {"smiles": "N#Cc1ccc2[nH]c3ccc(Br)cc3c2c1", "note": "[P7C3-S216, 6-bromo-9H-carbazole-3-carbonitrile]", "(×10^−06) BrdU+ cells/mm^3 dentate gyrus": "25.9 (×10^−06) BrdU+ cells/mm^3"},
      {"smiles": "O=C(Cn1c2ccc(Br)cc2c2cc(Br)ccc21)NO", "note": "[P7C3-S231, 2-(3,6-dibromo-9H-carbazol-9-yl)-N-hydroxyacetamide]", "(×10^−06) BrdU+ cells/mm^3 dentate gyrus": "26.1 (×10^−06) BrdU+ cells/mm^3"},
      {"smiles": "CC(C)(O)Cn1c2ccc(Br)cc2c2cc(Br)ccc21", "note": "[P7C3-S169, 1-(3,6-dibromo-9H-carbazol-9-yl)-2-methylpropan-2-ol]", "(×10^−06) BrdU+ cells/mm^3 dentate gyrus": "18.4 (×10^−06) BrdU+ cells/mm^3"},
      {"smiles": "OC(CN1c2ccccc2CCc2ccccc21)Cn1c2ccccc2c2ccccc21", "note": "(stereo not drawn) [P7C3-S133, 1-(9H-carbazol-9-yl)-3-(10,11-dihydro-5H-dibenzo[b,f]azepin-5-yl)propan-2-ol]", "(×10^−06) BrdU+ cells/mm^3 dentate gyrus": "20.2 (×10^−06) BrdU+ cells/mm^3"},
      {"smiles": "NCC(O)CN1c2ccccc2CCc2ccccc21", "note": "(stereo not drawn) [P7C3-S140, 1-amino-3-(10,11-dihydro-5H-dibenzo[b,f]azepin-5-yl)propan-2-ol]", "(×10^−06) BrdU+ cells/mm^3 dentate gyrus": "23.4 (×10^−06) BrdU+ cells/mm^3"},
      {"smiles": "N#Cc1ccc2c(c1)c1cc(Br)ccc1n2CC(=O)O", "note": "[P7C3-S224, 2-(3-bromo-6-cyano-9H-carbazol-9-yl)acetic acid]", "(×10^−06) BrdU+ cells/mm^3 dentate gyrus": "20.2 (×10^−06) BrdU+ cells/mm^3"},
      {"smiles": "NC(=O)c1ccc2c(c1)c1cc(Br)ccc1n2CC(=O)O", "note": "[P7C3-S238, 2-(3-bromo-6-carbamoyl-9H-carbazol-9-yl)acetic acid]", "(×10^−06) BrdU+ cells/mm^3 dentate gyrus": "18.8 (×10^−06) BrdU+ cells/mm^3"},
      {"smiles": "COc1cccc(N(CC(O)Cn2c3ccc(Br)cc3c3cc(Br)ccc32)S(C)(=O)=O)c1", "note": "(stereo not drawn) [P7C3-S251, N-(3-(3,6-dibromo-9H-carbazol-9-yl)-2-hydroxypropyl)-N-(3-methoxyphenyl)methanesulfonamide]", "(×10^−06) BrdU+ cells/mm^3 dentate gyrus": "17.7 (×10^−06) BrdU+ cells/mm^3"},
      {"smiles": "CN1C(=O)CN=C(c2ccc(Cl)cc2)c2cc(Cl)ccc21", "note": "[P7C3-S203, 4′-chlorodiazepam, reference compound]", "(×10^−06) BrdU+ cells/mm^3 dentate gyrus": "21.5 (×10^−06) BrdU+ cells/mm^3"},
      {"smiles": "CC(C)NCC(O)CN1c2ccccc2CCc2ccccc21", "note": "(stereo not drawn) [P7C3-S144, 1-(10,11-dihydro-5H-dibenzo[b,f]azepin-5-yl)-3-(isopropylamino)propan-2-ol]", "(×10^−06) BrdU+ cells/mm^3 dentate gyrus": "18.1 (×10^−06) BrdU+ cells/mm^3"},
      {"smiles": "CNCC(F)CN1c2ccccc2CCc2ccccc21", "note": "(stereo not drawn) [P7C3-S152, 3-(10,11-dihydro-5H-dibenzo[b,f]azepin-5-yl)-2-fluoro-N-methylpropan-1-amine]", "(×10^−06) BrdU+ cells/mm^3 dentate gyrus": "26.8 (×10^−06) BrdU+ cells/mm^3"},
      {"smiles": "CCOC(=O)C1=C[C@]2(CC)CCCN3CCc4c(n1c1ccccc41)[C@@H]32", "note": "[P7C3-S199, Vinpocetine, reference compound]", "(×10^−06) BrdU+ cells/mm^3 dentate gyrus": "26.5 (×10^−06) BrdU+ cells/mm^3"},
      {"smiles": "COc1ccc(S(=O)(=O)N(CC(O)Cn2c3ccc(Br)cc3c3cc(Br)ccc32)c2cccc(OC)c2)cc1", "note": "(stereo not drawn) [P7C3-S254, N-(3-(3,6-dibromo-9H-carbazol-9-yl)-2-hydroxypropyl)-4-methoxy-N-(3-methoxyphenyl)benzenesulfonamide]", "(×10^−06) BrdU+ cells/mm^3 dentate gyrus": "25.5 (×10^−06) BrdU+ cells/mm^3"},
      {"smiles": "O=c1[nH]c(=O)c2[nH]c3ccc(Br)cc3c2[nH]1", "note": "[P7C3-S269, 8-bromo-1H-pyrimido[5,4-b]indole-2,4(3H, 5H)-dione]", "(×10^−06) BrdU+ cells/mm^3 dentate gyrus": "35.4 (×10^−06) BrdU+ cells/mm^3"},
      {"smiles": "N[C@@H](Cc1c[nH]c2ccc(O)cc12)C(=O)O", "note": "[P7C3-S249, L-5-hydroxy-tryptophan, reference compound]", "(×10^−06) BrdU+ cells/mm^3 dentate gyrus": "34.8 (×10^−06) BrdU+ cells/mm^3"},
      {"smiles": "CN(C)c1nc(O)c2[nH]c3ccc(Br)cc3c2n1", "note": "[P7C3-S270, 8-bromo-2-(dimethylamino)-5H-pyrimido[5,4-b]indol-4-ol]", "(×10^−06) BrdU+ cells/mm^3 dentate gyrus": "28 (×10^−06) BrdU+ cells/mm^3"}
    ]}
  ]
}
